Results: US20260306460A1, “COMPOSITION FOR REMOVING AND INHIBITING SENESCENT CELLS, AND USES THEREOF” (LIFECEUTIX CO., LTD., priority 2023, published 2026)

Legend:
[1] = system: naturally aged C57BL6J mice; test: Osteoclast marker mRNA (Ctsk, Ocstamp, Oscar, Rank, Trap) in femur of naturally aged mice, Example 21-14, Table 29; assay type: in vivo, mouse; settings: left femur, untreated aged = 100%
Protocol: 22-month-old female C57BL6J mice (KRIBB Laboratory Animal Resource Center) were acclimated to the experimental environment for one week, after which the aged mice were randomly assigned to experimental and control groups. Eight-week-old, non-aged mice served as controls. LX-403 was mixed in a 10% ethanol solution of PEG400 and administered orally at a concentration of 25 mg/kg daily for 21 days, or administered to the skin, joints, or eyes at a concentration of 1 μM. LX-1801 was mixed in distilled water with 4% DMSO, 30% PEG300, and 5% Tween80 and administered to the skin, joints, or eyes at a concentration of 0.4 μM daily for 21 days. LX-2001 was mixed in PBS and administered to the skin, joints, or eyes at a concentration of […] daily for 21 days. LX-2002 was mixed in distilled water with 4% DMSO, 30% PEG300, and 5% Tween80 and administered to the skin, joints, or eyes at a concentration of 2 μM daily for 21 days. […] LX-2005 was mixed in distilled water with 4% DMSO, 30% PEG300, and 5% Tween80 and administered to the skin, joints, or eyes at a concentration of 90 μM daily for 21 days. LX-2007 was mixed in distilled water with 4% DMSO, 30% PEG300, and 5% Tween80 and administered to the skin, joints, or eyes at a concentration of 90 μM daily for 21 days. […] LX-3002 was mixed in distilled water with 4% DMSO, 30% PEG300, and 5% Tween80 and administered orally at a concentration of 10 mg/kg daily for 21 days. […] LX-5411 was mixed in 5% PBS and administered orally at a concentration of 10 mg/kg daily for 21 days or administered to the skin, joints, or eyes at a concentration of 3 μM. LX-5701 was mixed in PBS and administered orally at a concentration of 360 mg/kg daily for 21 days. LX-6807 was mixed in saline and administered intraperitoneally at a concentration of 1 mg/kg daily for 21 days. LX-2101 or LX-2102 was mixed in PBS solution with 5% DMSO and administered intraperitoneally at a concentration of 20 mg/kg or 10 mg/kg, respectively, daily for 21 days. The control group received only the solution in the same volume. After the end of drug administration, the methods described in each example below were performed.
Senile osteoporosis is a metabolic bone disease characterized by decreased bone density and a high fracture risk. It occurs in both men and women with aging. The accumulation of senescent cells is known to contribute to osteoporosis by increasing bone resorption by osteoclasts and decreasing bone formation by osteoblasts through the senescence-associated secretory factor (SASP). RNA was extracted from the left femur of mice as described in Example 7-2 WO2023-085787 A1, and qRT-PCR was performed using the synthesized cDNA. […] The amount of each factor after aging was induced was calculated as 100% and compared with the amount of each factor after treatment with the test compound.

[2] = system: doxorubicin-induced aged C57BL6J mice; test: Thrombosis (Serpine1, Plau, TIMP1 mRNA, tail bleeding time) in doxorubicin-aged mice, Example 22-10, Table 39; assay type: in vivo, mouse; settings: for Plau mRNA / Serpine1 mRNA / TIMP1 mRNA: qRT-PCR, doxorubicin-induced aged mice, amount after aging calculated as 100%; for Tail amputation bleeding time: tail incised 5 mm from the tip, saline 37° C., untreated 51 (±3.6)
Protocol: Eight-week-old male C57BL6J mice (KRIBB Laboratory Animal Resource Center) were acclimated to the experimental environment for one week. Afterwards, the anticancer agent doxorubicin was administered intraperitoneally at a concentration of 10 mg/kg, inducing aging for more than 10 days. The aging-induced mice were randomly assigned to experimental and control groups. LX-403 was mixed with a 10% ethanol solution of PEG400 and administered orally at a concentration of 25 mg/kg or intradermally at a concentration of 1 μM for 21 days. LX-1801 was mixed in distilled water with 4% DMSO, 30% PEG300, and 5% Tween80 and administered intradermally at a concentration of 0.4 μM daily for 21 days. LX-2001 was mixed in PBS and administered intradermally at a concentration of 2 μM daily for 21 days. LX-2002 was mixed in distilled water with 4% DMSO, 30% PEG300, and 5% Tween80 and administered intradermally at a concentration of 2 μM daily for 21 days. […] LX-2005 was mixed in distilled water with 4% DMSO, 30% PEG300, and 5% Tween80 and administered intradermally at a concentration of 90 μM daily for 21 days. LX-2007 was mixed in distilled water with 4% DMSO, 30% PEG300, and 5% Tween80 and administered intradermally at a concentration of 90 μM daily for 21 days. […] LX-3002 was mixed in distilled water with 4% DMSO, 30% PEG300, and 5% Tween80 and administered orally at a concentration of 10 mg/kg daily for 21 days. […] LX-5411 was mixed in 5% phosphate-buffered saline (PBS) and administered orally at a concentration of 10 mg/kg daily for 21 days or intradermally at a concentration of 3 μM. LX-5701 was mixed in PBS and administered orally at a concentration of 360 mg/kg daily for 21 days. LX-6807 was mixed in saline and administered intraperitoneally at a concentration of 1 mg/kg daily for 21 days. The control group received only the solution in the same volume. After the end of drug administration, the methods described in each example below were performed.
Using cDNA synthesized using the same method as in Example 7-6 of WO2023-085787 A1, qRT-PCR was performed and analyzed for the liver-produced senescence-associated secretory factor (SASP) and hemostasis-related factors like Serpine1 (PAI1), Plau (Urokinase), and TIMP1. To determine whether the treatment affects in vivo hemostasis, tail bleeding time was analyzed in mice induced to age by chemotherapy. Specifically, for tail bleeding analysis, mice were anesthetized, and the tail was incised 5 mm from the tip with a razor blade. The bleeding tail was then placed in a 15 ml test tube containing saline preheated to 37° C., and the time until blood flow stopped was measured. The bleeding time was determined when bleeding stopped for 10 seconds. […] The qPT-PCR results were compared with the amounts of each factor after aging was induced, calculating the amount of each factor as 100% and then treating it with the test compound.

[3] = system: doxorubicin-induced aged C57BL6J mice; test: Fatigue, weakness and weight loss in doxorubicin-aged mice, Example 22-7, Table 36; assay type: in vivo, mouse; settings: for Grip Sterenght Test Strength / Open Field Test Time in Center / Wire Hanging Test Time: amount after aging calculated as 100%; for Mean Body Weight: untreated 20.8 (±1.7)
Protocol: Eight-week-old male C57BL6J mice (KRIBB Laboratory Animal Resource Center) were acclimated to the experimental environment for one week. […] The aging-induced mice were randomly assigned to experimental and control groups. […] The control group received only the solution in the same volume. After the end of drug administration, the methods described in each example below were performed.
The amount of each evaluation after aging was calculated as 100% and compared with the amount of each evaluation after test compound treatment.

senescent cells = test: Viability of senescent cells (CellTiter-Glo), Example 17, Table 13; settings: Homo sapiens, read-out: Survival (%)
Protocol: Cells induced to undergo senescence by doxorubicin treatment were treated with test compound at designated concentrations and measured using the CellTiter-Glo Luminescent Cell Viability Assay (Promega).

Compound | Ctsk mRNA (%) [1] | Ocstamp mRNA (%) [1] | Oscar mRNA (%) [1] | Rank mRNA (%) [1] | Trap mRNA (%) [1] | Plau mRNA [2] | Serpine1 mRNA [2] | TIMP1 mRNA [2] | Tail amputation bleeding time [2] | Grip Sterenght Test Strength [3] | Open Field Test Time in Center [3] | Wire Hanging Test Time [3] | Mean Body Weight [3] | viability at 1.1 µM (senescent cells) | viability at 10 µM (senescent cells) | viability at 30 µM (senescent cells)
CC1(C)CC[C@]2(NC(=O)C(C)(F)F)CC[C@]3(C)[C@H](C(=O)C=C4[C@@]5(C)C=C(C#N)C(=O)C(C)(C)[C@@H]5CC[C@]43C)[C@@H]2C1 [LX-2101, Omaveloxolone] | 61 (±12.1) % | 69 (±10.3) % | 79 (±5.6) % | 75 (±2.7) % | 50 (±14.2) % | – | – | – | – | – | – | – | – | – | – | –
CCCC\C=C/C=C/C=C\CCCCCCCC(=O)O [LX-2707, Punicic acid] | 64 (±8.6) % | 73 (±3.2) % | 54 (±3.4) % | 67 (±3.4) % | 51 (±5.2) % | 65 (±1.8) % | 52 (±3.5) % | 46 (±1.5) % | 80 (±4.3) sec | 128 (±5.7) % | 232 (±33.6) % | 192 (±12.7) % | 22.4 (±2.1) g | – | – | –
COC(=O)[C@H]1Cc2c([nH]c3ccccc23)[C@H](c2ccc(S(C)(=O)=O)cc2)N1C(=O)CCl [LX-5401, methyl (1S,3R)-2-(2-chloroacetyl)-1-(4-(methylsulfonyl)phenyl)-2,3,4,9-tetrahydro-1H-pyrido[3,4-b]indole-3-carboxylate] | – | – | – | – | – | – | – | – | – | – | – | – | – | 99.5% | 66% | 24.6%
C#CC(=O)N1[C@@H](CCCC)Cc2cc(OC)ccc2[C@@H]1c1ccc(NC23CC4CC(CC(C4)C2)C3)cc1 [LX-5411] | – | – | – | – | – | – | – | – | – | – | – | – | – | 75.4% | 2.8% | –
O=C1C2CCN(CC2)C1CNC(=O)C(F)(F)F (stereo not drawn) [LX-5701] | 57 (±13.0) % | 70 (±6.7) % | 72 (±7.2) % | 68 (±10.4) % | 63 (±18.4) % | 53 (±13.9) % | 45 (±20.1) % | 53 (±11.2) % | 89 (±15.2) sec | 117 (±6.9) % | 192 (±24.3) % | 139 (±8.2) % | 23.0 (±2.8) g | 91.4% | 19.3% | –
Cc1cccc([C@H](C)c2cnc[nH]2)c1C [LX-6807, Dexmedetomidine] | 42 (±2.7) % | 53 (±5.1) % | 37 (±2.0) % | 57 (±3.9) % | 48 (±2.1) % | 45 (±3.6) % | 31 (±1.9) % | 59 (±1.9) % | 93 (±6.4) sec | 137 (±6.3) % | 249 (±34.1) % | 209 (±14.5) % | 23.2 (±2.7) g | 95.1% | 42.5% | 6.9%
Tocofersolan [LX-3001] | 67 (±7.2) % | 75 (±3.3) % | 61 (±4.7) % | 56 (±6.3) % | 78 (±6.8) % | 69 (±2.2) % | 76 (±2.1) % | 73 (±3.1) % | 72 (±2.6) sec | 120 (±9.3) % | – | 127 (±13.3) % | 21.2 (±1.3) g | – | – | –
